Measured values as given in ChEMBL document CHEMBL4725367, “Novel anticancer Hsp90 inhibitor disubstituted pyrazolyl 2-aminopyrimidine compound 7t induces cell cycle arrest and apoptosis via mitochondrial pathway in MCF-7 cells” (Bioorg Med Chem Lett, 2020).
Activity calls are given as the source filed them. No cut-off for these calls is given here.

Columns and labels:
[1] = target: T1, Heat shock protein HSP90 (Homo sapiens) (UniProt P07900+P08238); assay: Inhibition of HSP90 in human MCF7 cells assessed as induction of nuclear morphological changes by measuring horse shoe shaped nuclei formation at 1 uM by DAPI staining based fluorescence microscopy analysis; format: cell-based
[2] = target: T1, Heat shock protein HSP90 (Homo sapiens); assay: Inhibition of HSP90 in human MCF7 cells assessed as induction of morphological changes by measuring nuclei condensation at 1 uM by acridine orange/ethidium bromide staining based fluorescence microscopy analysis; format: cell-based
[3] = target: T1, Heat shock protein HSP90 (Homo sapiens); assay: Inhibition of HSP90 in human MCF7 cells assessed as induction of mitochondrial membrane potential loss by measuring cell population with intact mitochondrial membrane potential at 1 uM after 24 hrs by JC1 staining-based flow cytometry analysis (reference value: 92.39 %); parameters: scale not given: the % may be the effect or the level left
[4] = target: T1, Heat shock protein HSP90 (Homo sapiens); assay: Inhibition of HSP90 in human MCF7 cells assessed as induction of apoptosis by measuring total apoptotic and dead cell population at 1 uM measured after 24 hrs by annexinV-FITC/propidium iodide staining based flow cytometry (reference value: 9.23 %); parameters: scale not given: the % may be the effect or the level left
[5] = target: T1, Heat shock protein HSP90 (Homo sapiens); assay: Inhibition of HSP90 in human MCF7 cells assessed as induction of morphological changes by measuring membrane blebbing at 1 uM by acridine orange/ethidium bromide staining based fluorescence microscopy analysis; format: cell-based
[6] = target: T1, Heat shock protein HSP90 (Homo sapiens); assay: Inhibition of HSP90 in human MCF7 cells assessed as induction of morphological changes by measuring apoptotic body formation at 1 uM by acridine orange/ethidium bromide staining based fluorescence microscopy analysis; format: cell-based
[7] = target: T1, Heat shock protein HSP90 (Homo sapiens); assay: Inhibition of HSP90 in human MCF7 cells assessed as induction of apoptosis by measuring early apototic cells at 1 uM measured after 24 hrs by annexinV-FITC/propidium iodide staining based flow cytometry (reference value: 1.31 %); format: cell-based; parameters: scale not given: the % may be the effect or the level left
[8] = target: T1, Heat shock protein HSP90 (Homo sapiens); assay: Inhibition of HSP90 in human MCF7 cells assessed as cell cycle arrest by measuring accumulation at Sub-G1 phase at 1 uM measured after 24 hrs by RNaseA/propidium iodide staining based flow cytometric analysis (reference value: 3.75 %); parameters: scale not given: the % may be the effect or the level left
[9] = target: T1, Heat shock protein HSP90 (Homo sapiens); assay: Inhibition of HSP90 in human MCF7 cells assessed as cell cycle arrest by measuring accumulation at G0/G1 phase at 1 uM measured after 24 hrs by RNaseA/propidium iodide staining based flow cytometric analysis (reference value: 39.10 %); parameters: scale not given: the % may be the effect or the level left
[10] = target: T1, Heat shock protein HSP90 (Homo sapiens); assay: Inhibition of HSP90 in human MCF7 cells assessed as cell cycle arrest by measuring accumulation at S phase at 1 uM measured after 24 hrs by RNaseA/propidium iodide staining based flow cytometric analysis (reference value: 7.08 %); parameters: scale not given: the % may be the effect or the level left
[11] = target: T1, Heat shock protein HSP90 (Homo sapiens); assay: Inhibition of HSP90 in human MCF7 cells assessed as increase in ROS generation by measuring fluorescence intensity at 10 uM after 24 hrs by DCFDA staining based flow cytometry; format: cell-based
[12] = target: T1, Heat shock protein HSP90 (Homo sapiens); assay: Inhibition of HSP90 in human MCF7 cells assessed as induction of apoptosis by measuring live cells at 1 uM measured after 24 hrs by annexinV-FITC/propidium iodide staining based flow cytometry (reference value: 90.77 %); format: cell-based; parameters: scale not given: the % may be the effect or the level left
[13] = target: T1, Heat shock protein HSP90 (Homo sapiens); assay: Inhibition of HSP90 in human MCF7 cells assessed as cell cycle arrest by measuring accumulation at G2/M phase at 1 uM measured after 24 hrs by RNaseA/propidium iodide staining based flow cytometric analysis (reference value: 25.08 %); parameters: scale not given: the % may be the effect or the level left
[14] = target: T1, Heat shock protein HSP90 (Homo sapiens); assay: Inhibition of HSP90 in human MCF7 cells assessed as induction of apoptosis by measuring necrotic cells at 1 uM measured after 24 hrs by annexinV-FITC/propidium iodide staining based flow cytometry (reference value: 0.01 %); format: cell-based; parameters: scale not given: the % may be the effect or the level left
[15] = target: T1, Heat shock protein HSP90 (Homo sapiens); assay: Inhibition of HSP90 in human MCF7 cells assessed as induction of apoptosis by measuring late apototic cells at 1 uM measured after 24 hrs by annexinV-FITC/propidium iodide staining based flow cytometry (reference value: 7.91 %); format: cell-based; parameters: scale not given: the % may be the effect or the level left
[16] = target: T1, Heat shock protein HSP90 (Homo sapiens); assay: Inhibition of HSP90 in human MCF7 cells assessed as induction of nuclear morphological changes by measuring nuclear fragmentation at 1 uM by DAPI staining based fluorescence microscopy analysis; format: cell-based
[17] = target: T1, Heat shock protein HSP90 (Homo sapiens); assay: Inhibition of HSP90 in human MCF7 cells assessed as induction of mitochondrial membrane potential loss by measuring cell population with mitochondrial membrane potential collapse at 1 uM after 24 hrs by JC1 staining-based flow cytometry analysis (reference value: 6.53 %); parameters: scale not given: the % may be the effect or the level left

## O=c1[nH]cc(F)c(=O)[nH]1
[1]
  inhibition: Active
[2]
  inhibition: Active
[3]
  Activity: 70.3%
[4]
  Activity: 29.5%
[5]
  inhibition: Active
[6]
  inhibition: Active
[7]
  Activity: 1.94%
[8]
  Activity: 12.2%
[9]
  Activity: 27.4%
[10]
  Activity: 7.99%
[11]
  inhibition: Active
[12]
  Activity: 70.5%
[13]
  Activity: 26.4%
[14]
  Activity: 0.36%
[15]
  Activity: 27.2%
[16]
  Activity: Active
[17]
  Activity: 26.8%
